# Measured values taken from paper PMC11047580, “Design and Synthesis of Novel Amino and Acetamidoaurones with Antimicrobial Activities” (Antibiotics, 2024).
# Legend:
# [1] = Cytotoxic assay (resazurin); settings: human, IMR-90 normal lung fibroblasts
# S. aureus ATCC6538P = assay: MIC assay; format: cell-based, Staphylococcus aureus; settings: Staphylococcus aureus, ATCC6538P; two-fold serial dilutions in liquid media; n = 2–3
# [2] = Cytotoxic assay (resazurin); settings: human, HaCaT normal epidermal keratinocytes
# [3] = system: human cells (A498, BEAS-2B, Caco-2, HaCaT, HepG2, IMR-90); assay: Cytotoxic assay, summary over the six human cell types; settings: for Highest TI: highest CC50 on human cells divided by MIC on S. aureus; for Lowest TI: lowest CC50 on human cells divided by MIC on S. aureus
# [4] = as above; settings: human, 48 h exposure
# C. albicans DSM10697 = assay: MIC assay; format: cell-based, Candida albicans; settings: two-fold serial dilutions in liquid media, n = 2–3; for MIC: Candida albicans, DSM10697
# B. subtilis ATCC6633 = assay: MIC assay; format: cell-based, Bacillus subtilis; settings: Bacillus subtilis, ATCC6633; two-fold serial dilutions in liquid media; n = 2–3
# P. aeruginosa ATCC9027 = assay: MIC assay; format: cell-based, Pseudomonas aeruginosa; settings: Pseudomonas aeruginosa, ATCC9027; two-fold serial dilutions in liquid media; n = 2–3
# M. smegmatis ATCC700084 = assay: MIC assay (REMA); format: cell-based, Mycobacterium smegmatis; settings: Mycolicibacterium smegmatis, ATCC700084, REMA microdilution, n = 2–3
# [5] = Cytotoxic assay (resazurin); settings: human, Caco-2
# [6] = Cytotoxic assay (resazurin); settings: human, BEAS-2B normal lung epithelial cells
# E. coli ATCC8739 = assay: MIC assay; format: cell-based, Escherichia coli; settings: two-fold serial dilutions in liquid media, n = 2–3; for MIC: Escherichia coli, ATCC8739
# [7] = Cytotoxic assay (resazurin); settings: human, HepG2 liver cells
# [8] = Cytotoxic assay (resazurin); settings: human, A498 kidney epithelial cells
# [9] = system: B. subtilis, S. aureus, E. coli, P. aeruginosa, M. smegmatis, C. albicans; assay: First MIC screening, summary over the species of Table 2; format: cell-based; settings: discussion of the first screening
# [10] = Highest CC50, highest of the six human cell types
# [11] = Lowest CC50, lowest of the six human cell types
# [12] = Mean CC50, mean over the six human cell types
compound,measurement,setting,value
"Nc1ccc2c(c1)C(=O)/C(=C/c1cccc(OCc3ccccc3)c1)O2 [Compound 12, (Z)-5-amino-2-(3-(benzyloxy)benzylidene)benzofuran-3(2H)-one]",CC50 at 48 h,[1],42.4 µM
same,MIC,S. aureus ATCC6538P,100 µM
same,CC50 at 48 h,[2],51.3 µM
same,melting point,,132.6 °C
same,Highest TI,[3],3.4
same,Lowest TI,[3],0.4
same,CC50 at 48 h,[4]; [10],343 µM
same,CC50 at 48 h,[4]; [11],42.4 µM
same,CC50 at 48 h,[4]; [12],129 µM
same,MIC,C. albicans DSM10697,> 100 µM
same,MIC C. albicans DSM10697,C. albicans DSM10697,inactive
same,MIC,B. subtilis ATCC6633,25 µM
same,MIC,P. aeruginosa ATCC9027,> 100 µM
same,MIC,M. smegmatis ATCC700084,50 µM
same,CC50 at 48 h,[5],112 µM
same,CC50 at 48 h,[6],74.6 µM
same,MIC,E. coli ATCC8739,> 100 µM
same,MIC E. coli ATCC8739,E. coli ATCC8739,inactive
same,CC50 at 48 h,[7],343 µM
same,CC50 at 48 h,[8],152 µM
"CC(=O)Nc1ccc2c(c1)C(=O)/C(=C/c1ccc(Oc3ccccc3)cc1)O2 [Compound 15, (Z)-N-(3-oxo-2-(4-phenoxybenzylidene)-2,3-dihydrobenzofuran-5-yl)acetamide]",CC50 at 48 h,[1],> 500 µM
same,MIC,S. aureus ATCC6538P,100 µM
same,CC50 at 48 h,[2],> 500 µM
same,melting point,,213.5 °C
same,Highest TI,[3],>5
same,Lowest TI,[3],1.0
same,CC50 at 48 h,[4]; [10],> 500 µM
same,CC50 at 48 h,[4]; [11],110 µM
same,MIC,C. albicans DSM10697,> 100 µM
same,MIC C. albicans DSM10697,C. albicans DSM10697,inactive
same,MIC,B. subtilis ATCC6633,50 µM
same,MIC,P. aeruginosa ATCC9027,> 100 µM
same,MIC,M. smegmatis ATCC700084,50 µM
same,CC50 at 48 h,[5],137 µM
same,CC50 at 48 h,[6],110 µM
same,MIC,E. coli ATCC8739,> 100 µM
same,MIC E. coli ATCC8739,E. coli ATCC8739,inactive
same,CC50 at 48 h,[7],> 500 µM
same,CC50 at 48 h,[8],146 µM
"Nc1ccc2c(c1)C(=O)/C(=C/c1cccc(Oc3ccccc3)c1)O2 [Compound 16, (Z)-5-amino-2-(3-phenoxybenzylidene)benzofuran-3(2H)-one]",CC50 at 48 h,[1],116 µM
same,MIC,S. aureus ATCC6538P,25 µM
same,CC50 at 48 h,[2],80.4 µM
same,melting point,,145.6 °C
same,Highest TI,[3],18.0
same,Lowest TI,[3],3.2
same,CC50 at 48 h,[4]; [10],452 µM
same,CC50 at 48 h,[4]; [11],80.4 µM
same,CC50 at 48 h,[4]; [12],218 µM
same,MIC,C. albicans DSM10697,> 100 µM
same,MIC C. albicans DSM10697,C. albicans DSM10697,inactive
same,MIC,B. subtilis ATCC6633,25 µM
same,MIC,P. aeruginosa ATCC9027,> 100 µM
same,MIC,M. smegmatis ATCC700084,50 µM
same,CC50 at 48 h,[5],132 µM
same,CC50 at 48 h,[6],130 µM
same,MIC,E. coli ATCC8739,25 µM
same,CC50 at 48 h,[7],398 µM
same,CC50 at 48 h,[8],452 µM
"CC(=O)Nc1ccc2c(c1)C(=O)/C(=C/c1cccc(OC(C)C)c1)O2 [Compound 19, (Z)-N-(2-(3-isopropoxybenzylidene)-3-oxo-2,3-dihydrobenzofuran-5-yl)acetamide]",activity against tested micro-organisms (in words),[9],weak or no activity
same,MIC,S. aureus ATCC6538P,> 100 µM
same,MIC,C. albicans DSM10697,> 100 µM
same,MIC,B. subtilis ATCC6633,> 100 µM
same,MIC,P. aeruginosa ATCC9027,25 µM
same,MIC,M. smegmatis ATCC700084,> 100 µM
same,MIC,E. coli ATCC8739,> 100 µM
"CC(C)Oc1cccc(/C=C2\Oc3ccc(N)cc3C2=O)c1 [Compound 22, (Z)-5-amino-2-(3-isopropoxybenzylidene)benzofuran-3(2H)-one]",activity against tested micro-organisms (in words),[9],weak or no activity
same,MIC,S. aureus ATCC6538P,> 100 µM
same,melting point,,198.4 °C
same,MIC,C. albicans DSM10697,> 100 µM
same,MIC,B. subtilis ATCC6633,> 100 µM
same,MIC,P. aeruginosa ATCC9027,> 100 µM
same,MIC,M. smegmatis ATCC700084,> 100 µM
same,MIC,E. coli ATCC8739,> 100 µM
"CC(=O)Nc1ccc2c(c1)C(=O)/C(=C/c1ccccc1OC(C)C)O2 [Compound 18, (Z)-N-(2-(2-isopropoxybenzylidene)-3-oxo-2,3-dihydrobenzofuran-5-yl)acetamide]",activity against tested micro-organisms (in words),[9],weak or no activity
same,MIC,S. aureus ATCC6538P,> 100 µM
same,MIC,C. albicans DSM10697,> 100 µM
same,MIC,B. subtilis ATCC6633,> 100 µM
same,MIC,P. aeruginosa ATCC9027,> 100 µM
same,MIC,M. smegmatis ATCC700084,> 100 µM
same,MIC,E. coli ATCC8739,> 100 µM
"CC(C)Oc1ccccc1/C=C1\Oc2ccc(N)cc2C1=O [Compound 21, (Z)-5-amino-2-(2-isopropoxybenzylidene)benzofuran-3(2H)-one]",activity against tested micro-organisms (in words),[9],weak or no activity
same,MIC,S. aureus ATCC6538P,> 100 µM
same,MIC,C. albicans DSM10697,> 100 µM
same,MIC,B. subtilis ATCC6633,> 100 µM
same,MIC,P. aeruginosa ATCC9027,> 100 µM
same,MIC,M. smegmatis ATCC700084,> 100 µM
same,MIC,E. coli ATCC8739,> 100 µM
